Drawing on PubChem BioAssay (NCI), this text covers TGI and GI50 for 11 molecules.

“And” between values parts separate entries of the source, which are not always exact repeats. Identical values can stand only once.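 Protocol summary: plate cells (96-well), add compound at 5 concentrations, incubate 48 h, interpolate endpoints linearly. GI50 is the concentration that inhibits growth by half. TGI denotes the concentration required for complete inhibition of growth.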

What all share (experiment): DTP human tumour cell line panel, 48 h
Assay [1] has as its system SF-295 CNS.
The subject of assay [2] is SF-539 CNS.
Assay [3] deals with NCI-H522 lung.
Assay [4] concerns RPMI-8226 leukemia.
In assay [5] the test system is A498 renal.
Assay [6] has as its system HL-60(TB) leukemia.
Assay [7] relates to A549 NSCLC.
The test system of assay [8] is SNB-75 CNS.
The subject of assay [9] is HCT-15 colon.
Assay [10] concerns SK-MEL-2 melanoma.

In general, TGI refers to the concentration at which net growth stops. Read a low TGI as greater sensitivity of the cells. As to `CCCCCCCCCCCCCC(=O)OCC1OC(=O)C(O)C1O` (configuration not stated), the TGI in assay [1], in assay [2], in assay [3], in assay [4], in assay [5] and in [6] was above 100 µM in each case. Also, the TGI in assay [7] and in assay [8] was above 100 µM throughout.

A word on the GI50: it is the concentration that inhibits growth by half. As to `c1ccc2cc(Cn3c(-c4cccc5ccccc45)[n+](Cc4ccc5ccccc5c4)c4c5ccccc5c5ccccc5c43)ccc2c1`, the concentration for 50% growth inhibition (GI50) in assay [1] was 0.203 µM; in assay [4], 0.101 µM; in assay [5], 0.193 µM; in [9] it was 0.398 µM; in [6], 0.142 µM; in assay [8] it was 0.261 µM. Also, the TGI in assay [1] was found to be 1.05 µM; in assay [4], 0.861 µM; in assay [5], 0.779 µM; in assay [9], 1.88 µM; in [6] it was 0.585 µM; in assay [8] it was 1.19 µM.

`Cc1c(-c2c(F)cc(C(N)=O)c3[nH]c4c(c23)CC[C@H](C(C)(C)O)C4)cccc1-n1c(=O)c2cccc(F)c2n(C)c1=O`: the GI50 is 4.36 µM in [1]; 4.78 µM in [2]; 3.05 µM in assay [10]; 2.81 µM in assay [3]; 2.82 µM in assay [4]; 2.8 µM in assay [5]. The GI50 in [9] is 2.7 µM; in assay [6] it was 0.971 µM; in assay [7], 2.05 µM. The TGI in assay [1] was found to be 39.6 µM; in [2], 33.4 µM; in assay [10], 26 µM; in [3], 32.9 µM; in [4], 9.01 µM; in assay [5] it was 10.2 µM. The TGI was above 100 µM in assay [9], 3.22 µM in [6] and above 100 µM in [7].

Turning to `[N-]=[N+]=NCCCn1c2c(c3ccccc3c1=O)C(=O)c1cc3c(cc1-2)OCO3`, the GI50 is 44.1 µM in [1]; 20.9 µM in assay [2]; above 100 µM in assay [10]; 15.6 µM in [3]; above 100 µM in assay [4]; 75 µM in [5]. Also, the GI50 in assay [9] is above 100 µM; in assay [6], 43.6 µM; in [7], above 100 µM. Moreover, the total growth inhibition concentration (TGI) in assay [1], in assay [2], in assay [10], in assay [3], in assay [4] and in assay [5] was above 100 µM in each case. The TGI in [9], in assay [6] and in assay [7] was above 100 µM throughout.

As to `O=C(COc1ccc(Cl)cc1Cl)NNc1ccc([N+](=O)[O-])cc1`, the GI50 is 19.7 µM in assay [1]; 99.8 µM in assay [2]; 22 µM in assay [10]; above 100 µM in assay [4]; 21.6 µM in assay [5]; above 100 µM in assay [9]. In addition, the GI50 was above 100 µM in assay [6], above 100 µM in assay [7] and 15.3 µM in [8]. Further, the TGI in assay [1] was 40.1 µM; in assay [2] it was above 100 µM; in [10], 39.7 µM; in [4], above 100 µM; in [5], 53.8 µM; in assay [9], above 100 µM. The concentration for total growth inhibition (TGI) was above 100 µM in assay [6], above 100 µM in [7] and 33.7 µM in assay [8].

For `CC#CC#C/C=C1/C=CC2(CCCCO2)O1` (configuration not stated), the total growth inhibition concentration (TGI) in [1], in assay [2], in [10], in assay [3], in [5] and in assay [9] was above 100 µM in each case. Besides, the TGI in assay [6] was 47.4 µM; in [7], above 100 µM; in assay [8], above 100 µM.

For `CC(C)c1cccc(C(C)C)c1NC(=O)/C(Cc1nc2ccc(Cl)cc2[nH]c1=O)=N\NC(=O)C[N+](C)(C)C`, the TGI in assay [1], in assay [2], in [10], in assay [3], in [4] and in assay [5] was above 100 µM each time. Moreover, the TGI in assay [6] and in assay [7] was above 100 µM each time.

Regarding `OCC1OC(NO)C(O)C(O)C1O` (configuration not stated), the TGI in [1], in assay [2], in assay [3], in assay [4], in [5] and in [9] was above 100 µM each time. Also, the TGI in assay [6] and in [7] was above 100 µM in each case.

Take `CN1C(=O)CC(CC(=O)C2CCCCC2=O)CC1=O` (configuration not stated): the TGI in assay [1], in assay [2], in assay [3], in [4], in assay [5] and in assay [6] was above 100 µM in each case. The concentration for total growth inhibition (TGI) in [7] and in assay [8] was above 100 µM in each case.

On to `O=C1/C(=C/c2ccc(C(=O)O)cc2)CNC/C1=C\c1ccc(C(=O)O)cc1`, for which the total growth inhibition concentration (TGI) in assay [1], in assay [2], in assay [4], in [5], in [9] and in [6] was above 100 µM in each case. Also, the total growth inhibition concentration (TGI) in assay [7] and in assay [8] was above 100 µM in each case.

For `C/C=C1/CN2CCC34c5ccccc5N5C(=O)C(C6CC78c9ccccc9N9C(=O)C=CC(C%10CC7N6C/C%10=C/C)C98)=CC(C1CC23)C54` (configuration not stated), the GI50 in [1] was 15.9 µM; in [2], 12 µM; in assay [10], 12.3 µM; in assay [3] it was 8.97 µM; in [5], 10.7 µM; in assay [9], 2.83 µM. For the same molecule, the GI50 in assay [6] is 2.7 µM; in assay [7], 14.1 µM. Besides, the total growth inhibition concentration (TGI) was 19.6 µM and 32.7 µM in [1]; 3.32 µM and 26.4 µM in [2]; 13.5 µM and 25.5 µM in assay [10]; 11 µM and 27.2 µM in assay [3]; 16.6 µM and 23.7 µM in [5]; 14.6 µM and 10.3 µM in assay [9]. Also, the TGI in assay [6] was 1.36 µM and 10.2 µM; in [7], 18.9 µM and 32.3 µM; in assay [8] it was 14.7 µM.
